Data as given in ChEMBL document CHEMBL1201862, “PubChem BioAssay data set” (2004).
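Cultured in 96-well plates, cells were exposed to test compound for 48 hours across five concentrations. GI50 marks 50% less growth.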 The source made the active and inactive calls. Cut-off read from the data, not from the text of the source: active = GI50 up to about 1.1 µM and inactive = higher.

Key:
Assay in all cases: inhibition of tumour cell growth, NCI panel, 48 h
786-0 = test system: 786-0
A549 = test system: A549
CCRF-CEM = test system: CCRF-CEM
DLD-1 = test system: DLD-1
DMS-114 = test system: DMS-114
DMS-273 = test system: DMS-273
HCT-116 = test system: HCT-116
HL-60 = test system: HL-60
HOP-18 = test system: HOP-18
HT-29 = test system: HT-29
KM-20L2 = test system: KM-20L2
KM12 = test system: KM12
LXFL 529 = test system: LXFL 529
M14 = test system: M14
M19-MEL = test system: M19-MEL
MCF7 = test system: MCF7
MDA-N = test system: MDA-N
MOLT-4 = test system: MOLT-4
Malme-3M = test system: Malme-3M
NCI-H226 = test system: NCI-H226
NCI-H23 = test system: NCI-H23
NCI-H460 = test system: NCI-H460
NCI-H522 = test system: NCI-H522
OVCAR-3 = test system: OVCAR-3
OVCAR-8 = test system: OVCAR-8
RPMI-8226 = test system: RPMI-8226
SF-539 = test system: SF-539
SK-MEL-28 = test system: SK-MEL-28
SNB-78 = test system: SNB-78
SR = test system: SR
SW-620 = test system: SW-620
UACC-257 = test system: UACC-257
UACC-62 = test system: UACC-62
XF498 = test system: XF498
A498 = test system: A498
ACHN = test system: ACHN
CAKI-1 = test system: CAKI-1
COLO 205 = test system: COLO 205
EKVX = test system: EKVX
HCC 2998 = test system: HCC 2998
HCT-15 = test system: HCT-15
HOP-62 = test system: HOP-62
HOP-92 = test system: HOP-92
IGROV-1 = test system: IGROV-1
K562 = test system: K562
OVCAR-4 = test system: OVCAR-4
OVCAR-5 = test system: OVCAR-5
RXF 393 = test system: RXF 393
SF-268 = test system: SF-268
SF-295 = test system: SF-295
SK-MEL-2 = test system: SK-MEL-2
SK-MEL-5 = test system: SK-MEL-5
SK-OV-3 = test system: SK-OV-3
SN12C = test system: SN12C
SNB-19 = test system: SNB-19
SNB-75 = test system: SNB-75
TK-10 = test system: TK-10
U-251 = test system: U-251
UO-31 = test system: UO-31

COc1ccc(/C=C\c2cc(OC)c(OC)c(OC)c2)cc1OC(=O)C(N)CCC(=O)O (stereo not given)
GI50 (786-0): 0.000764 µM (active)
GI50 (A549): 0.000802 µM (active)
GI50 (CCRF-CEM): 0.000117 µM (active)
GI50 (DLD-1): < 1e-05 µM (active)
GI50 (DMS-114): < 1e-05 µM (active)
GI50 (DMS-273): < 1e-05 µM (active)
GI50 (HCT-116): 0.00015 µM (active)
GI50 (HL-60): 7.5e-05 µM (active)
GI50 (HOP-18): 0.0764 µM (active)
GI50 (HT-29): 1.43 µM (inactive)
GI50 (KM-20L2): 0.00252 µM (active)
GI50 (KM12): 0.000131 µM (active)
GI50 (LXFL 529): < 1e-05 µM (active)
GI50 (M14): 0.00016 µM (active)
GI50 (M19-MEL): < 1e-05 µM (active)
GI50 (MCF7): 0.00229 µM (active)
GI50 (MDA-N): 0.05 nM (active)
GI50 (MOLT-4): 0.000135 µM (active)
GI50 (Malme-3M): 0.000105 µM (active)
GI50 (NCI-H226): 0.000632 µM (active)
GI50 (NCI-H23): 0.000114 µM (active)
GI50 (NCI-H460): 0.000133 µM (active)
GI50 (NCI-H522): 8.51e-05 µM (active)
GI50 (OVCAR-3): 0.00011 µM (active)
GI50 (OVCAR-8): 0.000143 µM (active)
GI50 (RPMI-8226): 0.0001 µM (active)
GI50 (SF-539): 8.22e-05 µM (active)
GI50 (SK-MEL-28): 0.000188 µM (active)
GI50 (SNB-78): < 1e-05 µM (active)
GI50 (SR): 0.000208 µM (active)
GI50 (SW-620): 0.00015 µM (active)
GI50 (UACC-257): 0.000465 µM (active)
GI50 (UACC-62): 8.02e-05 µM (active)
GI50 (XF498): < 1e-05 µM (active)

CCCCCC(=O)Nc1nc(O)c2[nH]cnc2n1
GI50 (786-0): > 100 µM (inactive)
GI50 (A498): > 100 µM (inactive)
GI50 (A549): > 100 µM (inactive)
GI50 (ACHN): > 100 µM (inactive)
GI50 (CAKI-1): > 100 µM (inactive)
GI50 (CCRF-CEM): > 100 µM (inactive)
GI50 (COLO 205): > 100 µM (inactive)
GI50 (DLD-1): > 100 µM (inactive)
GI50 (DMS-114): > 100 µM (inactive)
GI50 (DMS-273): > 100 µM (inactive)
GI50 (EKVX): > 100 µM (inactive)
GI50 (HCC 2998): > 100 µM (inactive)
GI50 (HCT-116): > 100 µM (inactive)
GI50 (HCT-15): > 100 µM
GI50 (HL-60): > 100 µM (inactive)
GI50 (HOP-18): > 100 µM (inactive)
GI50 (HOP-62): > 100 µM (inactive)
GI50 (HOP-92): > 100 µM (inactive)
GI50 (HT-29): > 100 µM (inactive)
GI50 (IGROV-1): > 100 µM (inactive)
GI50 (K562): > 100 µM (inactive)
GI50 (KM-20L2): > 100 µM (inactive)
GI50 (KM12): > 100 µM (inactive)
GI50 (LXFL 529): > 100 µM (inactive)
GI50 (M14): > 100 µM (inactive)
GI50 (M19-MEL): > 100 µM (inactive)
GI50 (MOLT-4): > 100 µM (inactive)
GI50 (Malme-3M): > 100 µM (inactive)
GI50 (NCI-H226): > 100 µM (inactive)
GI50 (NCI-H23): > 100 µM (inactive)
GI50 (NCI-H460): > 100 µM (inactive)
GI50 (NCI-H522): 52.4 µM (inactive)
GI50 (OVCAR-3): > 100 µM (inactive)
GI50 (OVCAR-4): > 100 µM (inactive)
GI50 (OVCAR-5): > 100 µM (inactive)
GI50 (OVCAR-8): > 100 µM (inactive)
GI50 (RPMI-8226): > 100 µM (inactive)
GI50 (RXF 393): > 100 µM (inactive)
GI50 (SF-268): > 100 µM (inactive)
GI50 (SF-295): > 100 µM (inactive)
GI50 (SF-539): > 100 µM (inactive)
GI50 (SK-MEL-2): > 100 µM (inactive)
GI50 (SK-MEL-5): > 100 µM (inactive)
GI50 (SK-OV-3): > 100 µM (inactive)
GI50 (SN12C): > 100 µM (inactive)
GI50 (SNB-19): > 100 µM (inactive)
GI50 (SNB-75): > 100 µM (inactive)
GI50 (SNB-78): > 100 µM (inactive)
GI50 (SR): > 100 µM (inactive)
GI50 (SW-620): > 100 µM (inactive)
GI50 (TK-10): > 100 µM (inactive)
GI50 (U-251): > 100 µM (inactive)
GI50 (UACC-257): > 100 µM (inactive)
GI50 (UACC-62): > 100 µM (inactive)
GI50 (UO-31): > 100 µM (inactive)
GI50 (XF498): > 100 µM (inactive)
